One data set concerns the target T1, BRG-1 (Homo sapiens, UniProt P51532).
T1 construct: made in house; host or cells: High Five insect cells
Description: ATPase catalytic activity of BRG-1, ADP-Glo in vitro biochemical assay. The note with it: ADP-Glo ATPase assay, 30 nM BRG-1, 400 μM ATP; read-out: BRG1 IC50. The procedure, abridged: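 Biochemical ADP-Glo assay, BRG-1. Post-reaction: ATP depletion reagent, 40 min RT; ADP→ATP conversion/detection reagent, 60 min RT; luminescence read on plate luminometer.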
On the technique in general: ADP-Glo first removes unused ATP, then detects ADP through luciferase.

A further data set addresses T2, BRM (Homo sapiens, UniProt P51531).
T2 construct: made in house; host or cells: High Five insect cells
Kind of data set: ATPase catalytic activity of BRM, ADP-Glo in vitro biochemical assay. The note with it: for IC50: ADP-Glo ATPase assay, 30 nM BRM, 400 μM ATP; for Ratio*: ratio BRG1 IC50 / BRM IC50. The procedure, abridged: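 Recombinant BRM (30 nM) hydrolysed 400 μM ATP with 20 nM salmon sperm DNA in pH 8 Tris buffer containing 20 mM MgCl2, 50 mM NaCl, 0.1% Tween-20 and 1 mM DTT, 1 h at room temperature. ADP formed was quantified by ADP-Glo luminescence.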

For data set [1], the system named is Uveal melanoma cell lines, 92-1 or MP41. Kind of data set: 3-day growth inhibition compared with clinical PKC and MEK inhibitors, Compound A (Example 8). Type of data set: cell-based. Particulars: FIG. 2A and 2B. The protocol:
Procedure: Uveal melanoma cell lines, 92-1 or MP41, were plated in 96 well plates in the presence of growth media (see Table 5). […] Cells were incubated at 37 degrees Celsius for 3 days. After three days of treatment, cell growth was measured with Cell-titer glow (Promega), and luminescence was read on an Envision plate reader (Perkin Elmer).

Data set [2] shares this test system. Kind of data set: 3-day growth inhibition compared with clinical PKC and MEK inhibitors, Compound B (Example 13). Type of data set: cell-based. Particulars: FIG. 6A and 6B. The protocol:
Procedure: Uveal melanoma cell lines, 92-1 or MP41, were plated in 96 well plates in the presence of growth media (see Table 6). BAF ATPase inhibitor (Compound B), PKC inhibitor (LXS196; MedChemExpress), and MEK Inhibitor (Selumetinib; Selleck Chemicals) were dissolved in DMSO and added to the cells in a concentration gradient from 0 to 10 micromolar at the time of plating. Cells were incubated at 37° C. for 3 days. After three days of treatment, cell growth was measured with Cell-titer glow (Promega), and luminescence was read on an Envision plate reader (Perkin Elmer).

In data set [3] the test system is PKC inhibitor (PKCi)-resistant MP41 uveal melanoma cells. Description: 7-day growth inhibition assay, PKC inhibitor-resistant cells (Example 14). Type of data set: cell-based. The method, then: (§1) Procedure: MP41 uveal melanoma cells were made resistant to the PKC inhibitor (LXS196; MedChemExpress), by long-term culture in growth media (see Table 6) containing increasing concentrations of the compound, up to 1 micromolar. After 3 months, sensitivity of the parental MP41 cells and the PKC inhibitor (PKCi)-resistant cells to the PKC inhibitor (LXS196) or the BRG1/BRM ATPase inhibitor (Compound B) was tested in a 7-day growth inhibition assay as described above in Example 9.

The subject of the next data set is parental MP41 cells. Description: 7-day growth inhibition assay, parental cells (Example 14). Type of data set: cell-based. The note with it: FIG. 7B, 7-day assay. The protocol:
as §1

Data set [4] has as its system Uveal melanoma cell lines (92-1, MP41, MP38, MP46) and Non-small cell lung cancer cells (NCIH1299). Description: 3-day cell growth, Cell-titer glow (Example 12). Type of data set: cell-based. Particulars: FIG. 5, 3 days, 0 to 10 micromolar. The method, then:
Procedure: Uveal melanoma cell lines (92-1, MP41, MP38, MP46) and Non-small cell lung cancer cells (NCIH1299) were plated into 96 well plates with growth media (see Table 6). BRG1/BRM ATPase inhibitor, compound 67, was dissolved in DMSO and added to the cells in a concentration gradient from 0 to 10 micromolar at the time of plating. Cells were incubated at 37° C. for 3 days. After three days of treatment, cell growth was measured with Cell-titer glow (Promega), and luminescence was read on an Envision plate reader (Perkin Elmer).

A short description of data set [5]: Body weight and tolerability in mice engrafted with 92-1 tumors (Example 16). The note with it: all treatments, once daily oral gavage, 3 weeks, FIG. 8C. The format is in vivo. The protocol: Procedure: Nude mice (Envigo) were engrafted subcutaneously in the axillary region with 5×10^6 92-1 uveal melanoma cells in 50% Matrigel. Tumors were grown to a mean of ˜200 mm^3, at which point mice were grouped and dosing was initiated. Mice were dosed once daily by oral gavage with vehicle (20% 2-Hydroxypropyl-[…]) or increasing doses of Compound C. Tumor volumes and body weights were measured over the course of 3 weeks, and doses were adjusted by body weight to achieve the proper dose in terms of mg/kg. At this time, animals were sacrificed, and tumors were dissected and imaged.

T2 sequence (P51531 whole entry): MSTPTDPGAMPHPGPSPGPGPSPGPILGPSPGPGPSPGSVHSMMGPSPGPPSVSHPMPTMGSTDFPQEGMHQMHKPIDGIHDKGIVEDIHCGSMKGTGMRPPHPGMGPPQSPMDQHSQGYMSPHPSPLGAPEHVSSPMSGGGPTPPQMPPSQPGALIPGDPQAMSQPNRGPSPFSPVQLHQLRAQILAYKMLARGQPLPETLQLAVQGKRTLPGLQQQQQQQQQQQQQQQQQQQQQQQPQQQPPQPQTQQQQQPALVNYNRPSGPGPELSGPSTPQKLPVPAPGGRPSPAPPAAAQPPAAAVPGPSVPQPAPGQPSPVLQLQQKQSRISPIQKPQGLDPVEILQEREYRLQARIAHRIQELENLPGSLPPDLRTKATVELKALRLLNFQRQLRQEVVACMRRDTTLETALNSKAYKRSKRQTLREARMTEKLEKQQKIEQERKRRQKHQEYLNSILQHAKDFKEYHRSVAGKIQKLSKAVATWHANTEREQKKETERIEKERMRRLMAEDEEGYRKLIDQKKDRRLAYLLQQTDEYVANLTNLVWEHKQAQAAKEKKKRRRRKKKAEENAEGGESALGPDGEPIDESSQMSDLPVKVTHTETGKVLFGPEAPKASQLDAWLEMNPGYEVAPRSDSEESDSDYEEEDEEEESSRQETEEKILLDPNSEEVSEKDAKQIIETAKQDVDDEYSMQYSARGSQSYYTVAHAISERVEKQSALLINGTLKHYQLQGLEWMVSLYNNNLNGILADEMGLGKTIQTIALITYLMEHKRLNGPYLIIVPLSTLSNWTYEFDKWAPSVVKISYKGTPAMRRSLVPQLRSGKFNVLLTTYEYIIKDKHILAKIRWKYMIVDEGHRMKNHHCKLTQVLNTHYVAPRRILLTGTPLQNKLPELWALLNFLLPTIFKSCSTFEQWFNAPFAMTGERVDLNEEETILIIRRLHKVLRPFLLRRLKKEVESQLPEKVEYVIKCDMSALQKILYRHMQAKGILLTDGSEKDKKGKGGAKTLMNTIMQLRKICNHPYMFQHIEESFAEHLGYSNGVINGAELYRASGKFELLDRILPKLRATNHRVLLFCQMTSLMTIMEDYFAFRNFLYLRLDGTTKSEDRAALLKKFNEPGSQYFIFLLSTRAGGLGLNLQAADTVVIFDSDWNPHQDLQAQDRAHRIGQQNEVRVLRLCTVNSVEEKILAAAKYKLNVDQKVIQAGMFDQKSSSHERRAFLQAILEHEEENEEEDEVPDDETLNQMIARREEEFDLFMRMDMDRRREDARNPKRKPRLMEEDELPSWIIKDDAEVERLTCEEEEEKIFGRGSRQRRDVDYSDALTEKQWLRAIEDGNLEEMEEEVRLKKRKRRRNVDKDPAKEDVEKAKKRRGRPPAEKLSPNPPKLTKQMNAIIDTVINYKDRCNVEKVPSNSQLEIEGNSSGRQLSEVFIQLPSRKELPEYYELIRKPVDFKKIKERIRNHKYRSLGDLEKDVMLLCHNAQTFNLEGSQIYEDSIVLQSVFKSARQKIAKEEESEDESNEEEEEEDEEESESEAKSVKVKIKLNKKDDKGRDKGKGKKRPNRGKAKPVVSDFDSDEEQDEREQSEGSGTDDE
T1 sequence (P51532 whole entry): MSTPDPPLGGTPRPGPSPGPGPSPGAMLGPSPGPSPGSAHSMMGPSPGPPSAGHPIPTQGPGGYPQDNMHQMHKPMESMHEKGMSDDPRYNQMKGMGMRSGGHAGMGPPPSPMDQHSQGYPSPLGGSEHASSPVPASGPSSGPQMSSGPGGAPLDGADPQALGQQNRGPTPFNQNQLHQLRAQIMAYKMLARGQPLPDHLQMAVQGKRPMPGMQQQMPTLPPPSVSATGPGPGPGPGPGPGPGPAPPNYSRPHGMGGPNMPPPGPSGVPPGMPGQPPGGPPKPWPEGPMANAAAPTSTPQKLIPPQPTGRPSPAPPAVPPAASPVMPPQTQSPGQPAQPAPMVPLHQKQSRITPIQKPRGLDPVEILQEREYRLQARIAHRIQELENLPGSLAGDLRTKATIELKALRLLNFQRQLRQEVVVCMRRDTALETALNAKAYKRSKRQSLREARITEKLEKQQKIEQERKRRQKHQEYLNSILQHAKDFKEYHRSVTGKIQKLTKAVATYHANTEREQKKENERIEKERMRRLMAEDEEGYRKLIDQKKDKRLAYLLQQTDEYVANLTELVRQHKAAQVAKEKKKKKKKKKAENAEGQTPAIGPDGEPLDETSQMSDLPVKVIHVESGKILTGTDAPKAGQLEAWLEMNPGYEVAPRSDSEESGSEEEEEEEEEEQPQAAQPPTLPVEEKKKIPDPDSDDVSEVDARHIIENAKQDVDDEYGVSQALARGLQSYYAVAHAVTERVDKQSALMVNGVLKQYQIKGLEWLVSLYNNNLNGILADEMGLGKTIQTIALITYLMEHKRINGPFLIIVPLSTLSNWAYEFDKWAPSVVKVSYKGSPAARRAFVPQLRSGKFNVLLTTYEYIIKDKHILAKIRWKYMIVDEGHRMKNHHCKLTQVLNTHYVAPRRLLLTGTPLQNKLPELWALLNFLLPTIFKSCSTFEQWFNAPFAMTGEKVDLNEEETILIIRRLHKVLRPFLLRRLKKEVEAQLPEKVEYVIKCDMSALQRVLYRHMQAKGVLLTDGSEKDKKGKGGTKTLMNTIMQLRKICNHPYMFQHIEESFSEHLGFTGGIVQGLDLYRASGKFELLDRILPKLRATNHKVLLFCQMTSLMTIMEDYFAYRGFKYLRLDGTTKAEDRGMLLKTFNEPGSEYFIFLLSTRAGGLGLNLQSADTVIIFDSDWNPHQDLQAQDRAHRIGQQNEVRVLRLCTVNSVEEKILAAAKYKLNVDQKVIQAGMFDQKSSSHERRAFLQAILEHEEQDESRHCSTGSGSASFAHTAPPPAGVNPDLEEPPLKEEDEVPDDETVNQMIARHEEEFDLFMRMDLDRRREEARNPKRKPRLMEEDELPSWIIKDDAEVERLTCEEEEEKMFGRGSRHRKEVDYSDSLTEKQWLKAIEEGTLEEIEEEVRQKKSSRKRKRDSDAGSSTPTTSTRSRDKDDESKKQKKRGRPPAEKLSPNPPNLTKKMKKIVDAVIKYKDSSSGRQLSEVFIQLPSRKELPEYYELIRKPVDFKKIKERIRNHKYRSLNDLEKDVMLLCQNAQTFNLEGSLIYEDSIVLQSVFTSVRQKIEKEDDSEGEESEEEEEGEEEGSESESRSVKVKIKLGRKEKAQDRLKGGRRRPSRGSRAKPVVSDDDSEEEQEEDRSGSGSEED

Broadly, the IC50 is the concentration at which inhibition is half-maximal. With `COc1ccc(-c2ccc3cnc(CNC(=O)c4ccc5c(c4)S(=O)(=O)CCOC5)cc3n2)nc1` [Compound 850], at BRG-1, the IC50 came to 4560 nM. Also, at BRM, half-maximal inhibition (IC50) required 664 nM and the “Ratio*” value is given as 6.87.
Taken in the same sequence, the figures for `O=C(NCc1cc2nc(-c3ccc(OC4CC4)cn3)ccc2cn1)c1ccc2c(c1)S(=O)(=O)CCOC2` [Compound 851] were 2570 nM, 708 nM and 3.64.
Turning to `O=C(NCc1cc2nc(N3CCCc4cnc(OC5CC5)cc43)ccc2cn1)c1ccc2c(c1)S(=O)(=O)CCOC2` [Compound 852], at BRG-1, the IC50 was 176 nM. For the same compound, on BRM, the IC50 is 9.8 nM and the “Ratio*” value was determined as 17.95.
Take `O=C(NCc1cc2nc(N3CCOc4cnc(C5CC5)c(F)c43)ccc2cn1)c1ccc2c(c1)S(=O)(=O)CCOC2` [Compound 853]: the IC50 at BRG-1 worked out at 205 nM. Moreover, on BRM, the IC50 worked out at 12.6 nM and the “Ratio*” value stood at 16.24.
Consider `O=C(NCc1cc2nc(N3CCOc4ccc([C@@H](F)CF)nc43)ccc2cn1)c1ccc2c(c1)S(=O)(=O)CCOC2` [Compound 854], for which the IC50 on BRG-1 came out at 2070 nM. Further, on BRM, half-maximal inhibition (IC50) required 105 nM and the “Ratio*” value is reported as 19.74.
`O=C(NCc1cc2nc(N3CC4CC4c4cccnc43)ccc2cn1)c1ccc2c(c1)S(=O)(=O)CCOC2` (stereo not shown) [Compound 855]: the IC50 at BRG-1 is 3800 nM. Also, at BRM, the IC50 was 395 nM and the “Ratio*” value is 9.60.
For `O=C(NCc1cc2nc(N3CCOc4ccc([C@H](F)CF)nc43)ccc2cn1)c1ccc2c(c1)S(=O)(=O)CCOC2` [Compound 856] the same measures were 664 nM, 11.9 nM and 55.91.
Consider `CSCC[C@H](NC(=O)c1ccc(N)cc1)C(=O)Nc1nc(-c2cccc(-c3ccncc3)c2)cs1` [Compound A], for which the “onset of inhibition versus the clinical PKC and MEK inhibitors” value in data set [1] is “faster onset of inhibition”. Further, in data set [1] (3 days, 0 to 10 micromolar), the “growth inhibition of uveal melanoma cells versus the clinical PKC and MEK inhibitors” value is listed as “comparable growth inhibition”.
Take `CSCC[C@H](NC(=O)c1ccn(S(C)(=O)=O)c1)C(=O)Nc1nc(-c2cccc(-c3ccncc3)c2)cs1` [Compound B, (S)-1-(methylsulfonyl)-N-(4-(methylthio)-1-oxo-1-((4-(3-(pyridin-4-yl)phenyl)thiazol-2-yl)amino)butan-2-yl)-1H-pyrrole-3-carboxamide]: the “onset of growth inhibition versus the clinical PKC and MEK inhibitors” value in data set [2] is listed as “faster onset of growth inhibition”. Also, in data set [2] (3 days, 0 to 10 micromolar), the “growth inhibition of uveal melanoma cells versus the clinical PKC and MEK inhibitors” value is “more potent effects on growth inhibition”. Besides, the “sensitivity of PKCi-resistant cells versus the parental MP41 cells” value in data set [3] (FIG. 7B) is listed as “more sensitive”. The “growth inhibition of PKCi-resistant cell line” value in data set [3] (FIG. 7B, 7-day assay) is listed as “strong growth inhibition”. Moreover, in the data set with parental MP41 cells, the “growth inhibition of parental cell line” value was “strong growth inhibition”. Moreover, the “growth inhibition in the uveal melanoma cell lines” value in data set [4] is on record as “potent growth inhibition”.
Turning to `C[C@@H]1CN(c2cccc(-c3csc(NC(=O)CNC(=O)c4ccn(C(C)(C)C)c4)n3)n2)C[C@H](C)O1` [Compound C, 1-(tert-butyl)-N-(2-((4-(6-(cis-2,6-dimethylmorpholino)pyridin-2-yl)thiazol-2-yl)amino)-2-oxoethyl)-1H-pyrrole-3-carboxamide], the “tolerability, body weight” value in data set [5] was “well tolerated with no body weight loss observed”.
Consider `CC1(N)CCN(c2cccnc2NC(=O)c2nc(-c3ncccc3C(F)(F)F)cnc2N)CC1` [LXS196, reference compound], for which the “tolerance of PKCi-resistant cells versus the parental MP41 cell line” value in data set [3] (FIG. 7A) was “could tolerate growth at higher concentrations”.

The record behind these values is US20230416248A1, “COMPOUNDS AND USES THEREOF” (Foghorn Therapeutics Inc., priority 2020, published 2023).
